Columns and labels:
hSTING-CTD = hSTING-CTD (Homo sapiens (Human), UniProt Q86WV6); experiment: Human STING protein FP competition concentration response assay; type: binding
Experimental: A validated STING ligand, such as c-di-GMP, which is labeled with a read-out signal (e.g., a fluorescence signal such as fluorescein), is mixed with STING-CTD (e.g., mouse STING-CTD or human STING-CTD) with or without the presence of a compound of the present application. Changes in the read-out signal are measured (e.g., by fluorescence anisotropy) to determine the binding of the compound to STING-CTD.
Fluorescein labeled c-di-GMP, a validated STING ligand, was mixed with recombinant hSTING-CTD in a homogenous assay format with or without the presence of a compound of the present application (titrated) in PBS in black 384-well plates (10 μL per well). The fluorescence anisotropy was determined on a PerkinElmer EnVisions multi-mode plate reader. The plate can be read immediately after mixing the reagents or after a few hours without change of signals.
• 1) hSTING (Supplier: HDB) • 2) 2′-Fluo-AHC-c-di GMP (BIOLOG #F009) • 3) 2′3′-cGAMP (BIOLOG #C161) • 4) DMXAA (InvivoGen #tlrl-dmx) • 5) DMSO (Sigma, #D5879-100 mL) • 6) 10×PBS(HDB #MCP-020) • 7) Assay plate, 384-well black plate, solid black bottom (Greiner #784076) • 8) Compound dilution intermediate plate, 384 LDV plate (Labcyte #LP-0200) • 9) Liquid handler, ECHO550 (Labcyte) • 10) Liquid handler, Bravo (Aglient) • 11) Reader, Envision (PerkinElmer) • 12) Centrifuge (Eppendorf) • 13) Multichannel Pipette (Raining) • 14) 10 ml Reservoir (Corning) • 15) 15 ml centrifuge tube (Corning) • 16) Adhesive Plate seals (BioRad) Compound Preparation • a) Containers of each compound were centrifuged at 1000 rpm for 5 min. • b) Compounds were dissolved in DMSO at 30 mM. • c) Compounds were sufficiently vortexed, and centrifuged at 1000 rpm for 1 min. • d) 16 uL of the compound solution was transferred into a LDV Compound Plate. • e) 2-fold serial dilutions of the compound solution were made with DMSO, and 14 concentrations were made in the 384-well LDV Compound Plate. • f) The LDV plate was spun at 1000 rpm for 60 sec and sealed with foil (stored at −20° C. if not used immediately). • g) 335 nL of each compound from the LDV Compound Plate was transferred to Assay Plate (ECHO550). Probe Preparation • a) 200 uM probe stock (2′-Fluo-AHC-c-diGMP) was diluted by ddH2O to 6 uM working concentration. • b) 10-12 uL 6 uM working solution of probe was transferred into the LDV plate. • c) 50 nL per well 6 uM working solution of probe was transferred from the LDV plate to each well of the empty Assay Plate (Greiner 784076) by ECHO550 Buffer mode. • d) Probe final concentration was 30 nM when assay system was 10 uL. • e) The Assay Plate was spun at 1000 rpm for 1 min. Compound Addition • a) After the LDV Compound Plate was prepared, 335 nL compound (ECHO550 DMSO mode) was transferred from the LDV Compound Plate into the Assay Plate (Greiner 784076) containing 50 nL probe in each well according to the Assay Plate layout. • b) DMSO final concentration was 3.35% when assay system was 10 uL. • c) The Assay Plate was spun at 1000 rpm for 1 min. Protein Addition • a) Aliquot of hSTING protein was thawed on ice, briefly to generate uniform solution. • b) 55 uM stock protein was diluted in 1×PBS assay buffer to generate 10 uM final solutions. • c) For test compound and ZPE wells, 10 μL per well of 10 uM protein solutions was added into the Assay Plate containing both the probe and test compounds or DMSO using multichannel pipette. • d) For HPE wells, 10 μL/well of 1×PBS assay buffer instead of protein was added into the Assay Plate containing both the probe and DMSO using multichannel pipette. • e) The Assay Plate was spun at 1000 rpm for Imin. • f) The Assay Plate was incubated at r.t. for 10-20 min.
The EnVision plate reader was used to record the FA value of each well immediately after mixing the reagents or after a few hours without change of signals.
The raw data and calculated data (Fluorescence anisotropy (FA)) was exported from the EnVision reader. […]

hSTING-WT = hSTING-WT (Homo sapiens (Human), UniProt Q86WV6, H232R); experiment: Radiometric filtration binding competition assay, hSTING-WT
hSTING-R232 = hSTING-R232 (Homo sapiens (Human), UniProt Q86WV6, H232R); experiment: STING differential scanning fluorimetry (DSF) assay, WT human STING; conditions: WT (R232) human STING aa140-379, net shift in melting temperature
STING protein = STING protein (Homo sapiens (Human), UniProt Q86WV6, H232R); experiment: Cell based reporter assay of IRF activation (IRF-luciferase), THP1-dual-KI R232; conditions: read-out: THP1-dual-KI R232_IRF(Luciferase)_Activity Maximum measured (%)
From the text: Briefly, THP-1 monocytes were transfected and selected for stable integration of 2 reporter constructs. Clones incorporating stably integrated vectors were further selected by antibiotic resistance to blastocidin and zeocin. The reporter constructs included: (1) firefly luciferase reporter gene under the control of an ISG54 promoter fused to five interferon (IFN)-stimulated response elements to measure IRF transcription factor binding activity and (2) secreted embryonic alkaline phosphatase reporter gene under transcription control of an IFN-beta minimal promoter fused to 5 copies of the NFkB consensus transcriptional response element and 3 copies of the c-Rel binding site.
The resulting THP-1 cell line was further modified to incorporate 3 amino acid point mutations (H71R A230G Q293R). This modification of the native TMEM173 gene in THP-1 cells (HAQ) was designed to produce a cell reporter that expressed the most common allelic variant in the human population (THP-1 R232, available from InvivoGen). Alternatively, the TMEM173 gene was knocked out to provide a congenic control to counter-screen for compound activation that was independent of the STING protein (THP-1 STING KO).
Once cell lines were established, reporter assay protocols were developed and optimized to screen small molecule compounds for agonist activity. Assay optimization for efficacy and Z′ value included titration of the following parameters:
• 1. Cell pre-activation with PMA • 2. Cell seeding density • 3. DMSO tolerance • 4. Media selection • 5. FBS concentration • 6. Incubation time • 7. Co-Assessment of cell viability by CTG assay • 8. Appropriate HPE and ZPE controls • 9. Dose Response Titration Final Assay SOP Conditions • 1. No pre-activation with PMA • 2. 5×10^4 cells/well in 96 well plate format • 3. <0.5% DMSO • 4. […] 10% FBS • 6. 14-18 hr incubation • 7. Cell Titer Glo reagent (Promega) following supernatant removal • 8.

mSTING-R232 = mSTING-R232 (Mus musculus, UniProt Q3TBT3); experiment: STING differential scanning fluorimetry (DSF) assay, mouse STING; conditions: net shift in melting temperature

hSTING-CTD, sequence (Q86WV6 135-379): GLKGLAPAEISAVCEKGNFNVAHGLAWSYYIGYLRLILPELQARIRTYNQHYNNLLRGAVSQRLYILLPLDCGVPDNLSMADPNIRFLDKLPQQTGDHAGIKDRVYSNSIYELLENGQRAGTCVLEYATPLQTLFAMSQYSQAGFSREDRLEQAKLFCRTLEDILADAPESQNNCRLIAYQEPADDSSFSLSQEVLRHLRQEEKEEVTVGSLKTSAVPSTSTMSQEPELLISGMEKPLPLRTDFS
STING protein, sequence (Q86WV6 whole entry H232R): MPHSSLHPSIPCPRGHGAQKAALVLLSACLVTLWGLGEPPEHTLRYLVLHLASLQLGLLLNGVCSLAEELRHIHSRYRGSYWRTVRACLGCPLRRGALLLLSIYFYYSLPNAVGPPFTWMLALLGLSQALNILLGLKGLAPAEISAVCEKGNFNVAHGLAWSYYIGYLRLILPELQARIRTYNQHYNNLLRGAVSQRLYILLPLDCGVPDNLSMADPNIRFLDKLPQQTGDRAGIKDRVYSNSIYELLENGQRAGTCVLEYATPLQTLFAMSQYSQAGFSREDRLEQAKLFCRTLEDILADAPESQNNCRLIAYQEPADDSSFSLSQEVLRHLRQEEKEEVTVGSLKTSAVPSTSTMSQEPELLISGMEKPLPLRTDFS
hSTING-WT, sequence (Q86WV6 140-379 H232R): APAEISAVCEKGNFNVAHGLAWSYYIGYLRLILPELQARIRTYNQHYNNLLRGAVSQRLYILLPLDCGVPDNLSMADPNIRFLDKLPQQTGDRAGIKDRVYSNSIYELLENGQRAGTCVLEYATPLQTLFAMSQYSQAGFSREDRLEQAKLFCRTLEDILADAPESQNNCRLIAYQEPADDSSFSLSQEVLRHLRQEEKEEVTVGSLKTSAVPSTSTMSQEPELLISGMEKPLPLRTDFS
hSTING-R232, sequence (Q86WV6 140-379 H232R): as above

IC50 (hSTING-CTD) | Compound | other results
< 100 µM | O=C(O)Cn1c2cc(-c3ccccc3)ccc2c(=O)c2ccc(Cl)c(Cl)c21 [Compound 65] | –
500 to 1000 µM | O=C(O)Cn1c2ccccc2c(=O)c2c(Cl)ccc(Cl)c21 [Compound 56] | –
100 to 500 µM | Cc1ccccc1CCc1ccc2c(c1)c(=O)c1ccccc1n2CC(=O)O [Compound 74] | –
500 to 1000 µM | O=C(O)CN1c2ccccc2Cc2cc(CCC3CCCCC3)ccc21 [Compound 90] | –
100 to 500 µM | COc1ccc2c(=O)c3ccc(Cl)c(Cl)c3n(CC(=O)O)c2c1 [Compound 95] | –
100 to 500 µM | CC(C)c1ccc(-c2cccc3c2c(=O)c2ccc(Cl)c(Cl)c2n3CC(=O)O)cc1 [Compound 54] | –
< 100 µM | COCc1c(Cl)ccc2c(=O)c3ccccc3n(CC(=O)O)c12 [Compound 229] | IC50 (hSTING-WT): > 300 µM; WT_DSF_hSWAT Tm Shift (° C.) (hSTING-R232): B (“B” = 0-2° C.); Emax (STING protein): < 5%
500 to 1000 µM | COc1cccc(CCc2ccc3c(c2)c(=O)c2ccccc2n3CC(=O)O)c1 [Compound 43] | –
> 1000 µM | CSc1ccc2c(=O)c3ccc(SC)c(Cl)c3n(CC(=O)O)c2c1 [Compound 46] | –
100 to 500 µM | CC1(C)CCC=C(c2ccc3c(c2)c(=O)c2ccccc2n3CC(=O)O)C1 [Compound 73] | –
500 to 1000 µM | Cc1cc(Cl)c2c(c1)c(=O)c1ccc(C)cc1n2CC(=O)O [Compound 38] | –
< 100 µM | O=C(O)Cn1c2cc(C3=CCCCC3)ccc2c(=O)c2ccc(Cl)c(Cl)c21 [Compound 116] | –
> 1000 µM | O=C(O)Cn1c2ccccc2c(=O)c2cc(Cl)cc(Cl)c21 [Compound 58] | –
< 100 µM | O=C(O)Cn1c2cc(NC3CCCCCC3)ccc2c(=O)c2ccc(Cl)c(Cl)c21 [Compound 122] | MOUSE DSF_6xHIS-SUMO Tm Shift (° C.) (mSTING-R232): D (“D” > 15° C.); IC50 (hSTING-WT): 20 to 100 µM; WT_DSF_hSWAT Tm Shift (° C.) (hSTING-R232): C (“C” = 2-7° C,); Emax (STING protein): > 50%
100 to 500 µM | Cc1ccc2c(c1C)c(=O)c1ccc(Cl)c(Cl)c1n2CC(=O)O [Compound 96] | –
100 to 500 µM | O=C(O)Cn1c2ccccc2c(=O)c2cc(/C=C\c3ccccc3)ccc21 [Compound 80] | –
< 100 µM | CC(C)c1ccc(-c2ccc3c(c2)c(=O)c2ccccc2n3CC(=O)O)cc1 [Compound 41] | –
< 100 µM | O=C(O)Cn1c2cc(NC3CCCC3)ccc2c(=O)c2ccc(Cl)c(Cl)c21 [Compound 118] | –
100 to 500 µM | O=C(O)Cn1c2ccc(CCc3ccccc3)cc2c(=O)c2ccc(Cl)c(Cl)c21 [Compound 88] | –
> 1000 µM | O=C(O)Cn1c2ccccc2c(=O)c2ccc(F)c(Cl)c21 [Compound 83] | –
100 to 500 µM | O=C(O)Cn1c2ccc(Br)cc2c(=O)c2ccc(Cl)c(Cl)c21 [Compound 89] | –
100 to 500 µM | Cc1ccc2c(=O)c3cc(-c4ccc(C(C)C)cc4)ccc3n(CC(=O)O)c2c1 [Compound 77] | –
> 1000 µM | O=C(O)Cn1c2ccccc2c(=O)c2ccc(Cl)c(F)c21 [Compound 84] | –
> 1000 µM | Cc1ccc2c(=O)c3cc(Br)ccc3n(CC(=O)O)c2c1 [Compound 78] | –
< 100 µM | CC(C)Nc1ccc2c(=O)c3ccc(Cl)c(Cl)c3n(CC(=O)O)c2c1 [Compound 119] | –
500 to 1000 µM | COc1ccccc1CCc1ccc2c(c1)c(=O)c1ccccc1n2CC(=O)O [Compound 42] | –

IC50 (hSTING-CTD) | Compound | other results
> 1000 µM | CCc1cccc2c1c(=O)c1ccc(Cl)c(Cl)c1n2CC(=O)O [Compound 49] | –
> 1000 µM | Cc1cc2c(=O)c3ccc(Cl)c(Cl)c3n(CC(=O)O)c2cc1N1CCCCC1 [Compound 62] | –
> 1000 µM | O=C(O)Cn1c2ccccc2c(=O)c2c(Cl)c(Cl)ccc21 [Compound 48] | –
< 100 µM | O=C(O)Cn1c2cc(NC3CCC3)ccc2c(=O)c2ccc(Cl)c(Cl)c21 [Compound 117] | –
< 100 µM | Cc1ccc2c(=O)c3ccc(Cl)c(Br)c3n(CC(=O)O)c2c1 [Compound 112] | MOUSE DSF_6xHIS-SUMO Tm Shift (° C.) (mSTING-R232): C (“C” = 5-15° C.); IC50 (hSTING-WT): 20 to 100 µM; WT_DSF_hSWAT Tm Shift (° C.) (hSTING-R232): B (“B” = 0-2° C.); Emax (STING protein): 5 to 25%
> 1000 µM | O=C(O)Cn1c2ccccc2c(=O)c2cc(Cl)c(Cl)cc21 [Compound 57] | –
> 1000 µM | CC(C)(C)c1ccc2c(=O)c3ccc(Cl)c(OC4CCC4)c3n(CC(=O)O)c2c1 [Compound 228] | IC50 (hSTING-WT): 20 to 100 µM; WT_DSF_hSWAT Tm Shift (° C.) (hSTING-R232): C (“C” = 2-7° C,); Emax (STING protein): < 5%
> 1000 µM | COc1c(Cl)ccc2c(=O)c3ccc(C4CCNCC4)cc3n(CC(=O)O)c12 [Compound 226] | IC50 (hSTING-WT): 100 to 300 µM; WT_DSF_hSWAT Tm Shift (° C.) (hSTING-R232): C (“C” = 2-7° C,)
100 to 500 µM | O=C(O)Cn1c2ccccc2c(=O)c2cc(C#CC3CCCCC3)ccc21 [Compound 39] | –
500 to 1000 µM | Cc1cc2c(=O)c3ccc(Cl)c(Cl)c3n(CC(=O)O)c2cc1F [Compound 93] | –
100 to 500 µM | Cc1cc2c(=O)c3ccc(Cl)c(Cl)c3n(CC(=O)O)c2cc1N(C)C [Compound 64] | –
< 100 µM | O=C(O)Cn1c2cc(C3=CCCC3)ccc2c(=O)c2ccc(Cl)c(Cl)c21 [Compound 114] | –
100 to 500 µM | O=C(O)Cn1c2cc(Br)ccc2c(=O)c2ccc(Cl)c(Cl)c21 [Compound 79] | –
500 to 1000 µM | CC1(C)c2ccccc2N(CC(=O)O)c2ccc(Br)cc21 [Compound 86] | –
< 100 µM | CCNc1ccc2c(=O)c3ccc(Cl)c(Cl)c3n(CC(=O)O)c2c1 [Compound 123] | –
< 100 µM | CC(C)c1ccc(-c2ccc3c(=O)c4ccc(Cl)c(Cl)c4n(CC(=O)O)c3c2)cc1 [Compound 91] | –
100 to 500 µM | O=C(O)Cn1c2ccccc2c(=O)c2ccc(Br)c(Cl)c21 [Compound 52] | –
> 1000 µM | O=C(O)Cn1c2cc(F)ccc2c(=O)c2ccc(Cl)c(Cl)c21 [Compound 30] | –
< 100 µM | CC(C)c1ccc(-c2ccc3c(c2)c(=O)c2ccc(Cl)c(Cl)c2n3CC(=O)O)cc1 [Compound 72] | –
100 to 500 µM | O=C(O)Cn1c2ccccc2c(=O)c2ccc(Cl)c(Br)c21 [Compound 51] | –
100 to 500 µM | Cc1cc2c(=O)c3ccc(Cl)c(Cl)c3n(CC(=O)O)c2cc1N1CCOCC1 [Compound 63] | –
100 to 500 µM | Cc1ccc2c(=O)c3cc(CCC4CCCCC4)ccc3n(CC(=O)O)c2c1 [Compound 76] | –
500 to 1000 µM | Cc1ccc2c(c1)c(=O)c1ccc(Cl)c(Cl)c1n2CC(=O)O [Compound 121] | –
< 100 µM | O=C(O)Cn1c2ccccc2c(=O)c2cc(CCC3CCCCC3)ccc21 [Compound 40] | –
500 to 1000 µM | CC(C)c1cccc2c1c(=O)c1ccc(Cl)c(Cl)c1n2CC(=O)O [Compound 55] | –

Source: patent US11414387B2, “Oxoacridinyl acetic acid derivatives and methods of use” (Stingthera, Inc., priority 2017, dated 2022)
